A word on the GI50: it is the concentration giving 50% growth inhibition. A word on the IC50: it is the concentration that gives 50% inhibition.

From ChEMBL document CHEMBL4373717, “Coumarin-containing hybrids and their anticancer activities” (Eur J Med Chem, 2019) come the findings set out here.

The test system of one assay is AGS. Nature of the assay: Growth inhibition of human AGS cells. It counts as functional.
Assay [1] in a line: Growth inhibition of human KATO III cells. The format is functional.
The test system of another assay is SNU1. The experiment in a line: Growth inhibition of human SNU1 cells. It counts as functional.
Another assay concerns SK-OV-3. The experiment in a line: Growth inhibition of human SKOV3 cells. The format is functional.
Another assay relates to OVCAR-8. The experiment in a line: Growth inhibition of human OVCAR8 cells. It counts as functional.
The next assay deals with BXPC-3. The experiment in a line: Growth inhibition of human BxPC3 cells. It counts as functional.
Another assay concerns PANC-1. Nature of the assay: Growth inhibition of human PANC1 cells. The format is functional.
The next assay concerns T-24. Nature of the assay: Growth inhibition of human T24 cells. It counts as functional.
The next assay concerns WiDr. The experiment in a line: Growth inhibition of human WiDr cells. It counts as functional.
Assay [2] concerns HepG2. The experiment in a line: Growth inhibition of human HepG2 cells. It counts as functional.
A further assay deals with SN12C. The experiment in a line: Growth inhibition of human SN12C cells. The format is functional.
Assay [3] deals with MCF7. Nature of the assay: Growth inhibition of human MCF7 cells. The format is functional.
For assay [4], the system named is MCF7. The experiment in a line: Cytotoxicity against human MCF7 cells assessed as reduction in cell viability after 48 hrs by MTT assay. The format is functional, cell-based. Conditions: MCF7, 48 h. Background: Tetrazolium assays rely on reduction of a dye to a coloured formazan, in cell work by metabolically active cells.
The test system of assay [5] is HepG2. Nature of the assay: Cytotoxicity against human HepG2 cells assessed as reduction in cell viability after 48 hrs by MTT assay. It counts as functional, cell-based. The settings on record: HepG2, 48 h.
In assay [6] the test system is A549. The experiment in a line: Cytotoxicity against human A549 cells assessed as reduction in cell viability by MTT assay. It counts as functional, cell-based.
Assay [7] concerns MCF7. The experiment in a line: Cytotoxicity against human MCF7 cells assessed as reduction in cell viability by MTT assay. The settings on record: Homo sapiens, MCF7. It counts as functional, cell-based.
A further assay has as its system SK-MEL-28. Nature of the assay: Cytotoxicity against human SK-MEL-28 cells assessed as reduction in cell viability after 24 hrs by MTT assay. It counts as functional, cell-based. The settings on record: SK-MEL-28, 24 h.
Another assay relates to BT-20. The experiment in a line: Cytotoxicity against human BT20 cells assessed as reduction in cell viability after 24 hrs by MTT assay. The format is functional, cell-based. Conditions: BT-20, 24 h.
The subject of a further assay is DU-145. Nature of the assay: Cytotoxicity against human DU145 cells assessed as reduction in cell viability after 24 hrs by MTT assay. Conditions: DU-145, 24 h. The format is functional, cell-based.
Assay [8] relates to A549. Nature of the assay: Cytotoxicity against human A549 cells assessed as reduction in cell viability after 24 hrs by MTT assay. The format is functional, cell-based. Conditions: A549, 24 h.
A further assay relates to HeLa. Nature of the assay: Cytotoxicity against human HeLa cells assessed as reduction in cell viability after 72 hrs by MTT assay. The format is functional, cell-based.
A further assay concerns Caco-2. Nature of the assay: Cytotoxicity against human Caco2 cells assessed as reduction in cell viability after 72 hrs by MTT assay. It counts as functional, cell-based. The settings on record: Caco-2, 72 h.
Another assay relates to K562. Nature of the assay: Cytotoxicity against human K562 cells assessed as reduction in cell viability after 72 hrs by MTT assay. Conditions: K562, 72 h. It counts as functional, cell-based.
Assay [9] has as its target Vascular endothelial growth factor receptor 2 (Homo sapiens, UniProt P35968). Nature of the assay: Inhibition of VEGFR2 (unknown origin).
The subject of the next assay is DLD-1. Nature of the assay: Cytotoxicity against human DLD1 cells assessed as reduction in cell viability. It counts as functional, cell-based.
Assay [10] has as its system MCF7. Nature of the assay: Cytotoxicity against human MCF7 cells assessed as reduction in cell viability. The format is functional, cell-based.
A further assay concerns HCT-116. Nature of the assay: Cytotoxicity against human HCT116 cells assessed as reduction in cell viability after 96 hrs by MTT assay. It counts as functional, cell-based. The settings on record: HCT-116, 96 h.
The test system of the next assay is MDA-MB-231. Nature of the assay: Cytotoxicity against human MDA-MB-231 cells assessed as reduction in cell viability after 96 hrs by MTT assay. The format is functional, cell-based. The settings on record: MDA-MB-231, 96 h.
In the next assay the test system is HT-29. The experiment in a line: Cytotoxicity against human HT-29 cells assessed as reduction in cell viability after 96 hrs by MTT assay. It counts as functional, cell-based. Conditions: HT-29, 96 h.
Assay [11] relates to HepG2. The experiment in a line: Anticancer activity against human HepG2 cells by CCK8 assay. The format is functional, cell-based.
In another assay the test system is Hep 3B2. The experiment in a line: Anticancer activity against human Hep3B cells by CCK8 assay. The format is functional, cell-based.
The test system of another assay is A2780. Nature of the assay: Anticancer activity against human A2780 cells by CCK8 assay. It counts as functional, cell-based.
The test system of a further assay is OVCAR-3. The experiment in a line: Anticancer activity against human OVCAR3 cells by CCK8 assay. It counts as functional, cell-based.

Converted amounts (≈) assume the structure as drawn.

Sequence of Vascular endothelial growth factor receptor 2 (P35968 whole entry): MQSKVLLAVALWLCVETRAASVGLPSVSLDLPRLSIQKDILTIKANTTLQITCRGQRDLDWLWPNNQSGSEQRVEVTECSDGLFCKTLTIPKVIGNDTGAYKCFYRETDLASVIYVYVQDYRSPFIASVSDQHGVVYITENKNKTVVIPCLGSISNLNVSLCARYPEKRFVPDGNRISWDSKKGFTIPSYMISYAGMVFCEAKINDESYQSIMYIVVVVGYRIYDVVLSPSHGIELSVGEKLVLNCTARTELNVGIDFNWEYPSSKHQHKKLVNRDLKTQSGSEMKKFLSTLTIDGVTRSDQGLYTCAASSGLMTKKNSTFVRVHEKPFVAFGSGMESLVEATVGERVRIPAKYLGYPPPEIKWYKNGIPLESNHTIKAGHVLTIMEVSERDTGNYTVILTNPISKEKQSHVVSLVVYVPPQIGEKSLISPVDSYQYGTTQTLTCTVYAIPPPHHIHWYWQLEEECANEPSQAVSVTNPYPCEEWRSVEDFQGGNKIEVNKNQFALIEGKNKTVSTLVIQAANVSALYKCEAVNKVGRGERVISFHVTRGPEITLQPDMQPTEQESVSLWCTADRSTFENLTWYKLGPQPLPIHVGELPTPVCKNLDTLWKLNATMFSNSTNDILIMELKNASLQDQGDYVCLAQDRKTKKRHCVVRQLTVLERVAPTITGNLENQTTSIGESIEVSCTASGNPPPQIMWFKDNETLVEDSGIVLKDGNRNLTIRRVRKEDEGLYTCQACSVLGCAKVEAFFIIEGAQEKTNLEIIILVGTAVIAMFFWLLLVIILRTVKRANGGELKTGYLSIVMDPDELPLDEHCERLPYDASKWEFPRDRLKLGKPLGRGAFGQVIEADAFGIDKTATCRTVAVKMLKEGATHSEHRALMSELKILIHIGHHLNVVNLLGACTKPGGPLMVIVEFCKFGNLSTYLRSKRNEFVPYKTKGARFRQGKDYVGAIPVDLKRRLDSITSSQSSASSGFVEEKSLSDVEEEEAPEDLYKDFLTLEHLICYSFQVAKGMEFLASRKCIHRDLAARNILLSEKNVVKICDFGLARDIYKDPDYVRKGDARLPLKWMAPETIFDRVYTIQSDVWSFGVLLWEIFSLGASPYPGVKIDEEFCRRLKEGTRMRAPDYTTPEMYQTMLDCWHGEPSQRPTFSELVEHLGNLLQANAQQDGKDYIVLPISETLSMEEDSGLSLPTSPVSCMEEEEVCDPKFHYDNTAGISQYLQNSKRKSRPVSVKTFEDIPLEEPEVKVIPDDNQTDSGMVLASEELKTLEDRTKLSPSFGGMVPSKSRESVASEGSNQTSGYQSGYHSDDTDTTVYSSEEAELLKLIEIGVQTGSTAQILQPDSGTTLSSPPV

For the compound `Cc1cc2nc(-c3cc4ccccc4oc3=O)[nH]c2cc1C`, the GI50 (in the assay with AGS; in assay [1]; in the assay with SNU1; with SK-OV-3; in the assay on OVCAR-8; in the assay with BXPC-3) was 0.07 to 3.57 µM throughout. Besides, the concentration for 50% growth inhibition (GI50) in the assay with PANC-1 was 0.07 to 3.57 µM; with T-24, 0.07 to 3.57 µM; in the assay with WiDr, 0.07 to 3.57 µM; with HepG2 [2], 0.07 to 3.57 µM; in the assay on SN12C it was 0.07 to 3.57 µM; in the assay on MCF7 [3] it was greater than 10 µM.
As for `Cc1ccc2[nH]c(-c3cc4ccccc4oc3=O)nc2c1`, the 50% growth inhibitory concentration (GI50) (in the assay with AGS; in assay [1]; in the assay on SNU1; in the assay with SK-OV-3; in the assay with OVCAR-8; in the assay on BXPC-3) was 0.07 to 3.57 µM throughout. In addition, the 50% growth inhibitory concentration (GI50) in the assay with PANC-1 is 0.07 to 3.57 µM; with T-24, 0.07 to 3.57 µM; with WiDr, 0.07 to 3.57 µM; in the assay with HepG2 [2], 0.07 to 3.57 µM; with SN12C, 0.07 to 3.57 µM; in the assay on MCF7 [3] it was greater than 10 µM.
Take `Cc1cc(-c2cc3cc(Cl)ccc3oc2=O)n(-c2nc(-c3ccc(Cl)cc3)cs2)n1`: the figures for the half-maximal inhibitory concentration (IC50) in the assay on MCF7 [4] and in the assay on HepG2 [5] were 4.03 to 31.5 µM and 3.06 to 3.74 µM, respectively.
On the same counts, the results for `COc1ccc(-c2csc(-n3nc(C)cc3-c3cc4cc(Cl)ccc4oc3=O)n2)cc1` are 4.03 to 31.5 µM and 3.06 to 3.74 µM.
For the compound `O=C(CNCc1cccnc1)Nc1cc2ccccc2oc1=O`, the IC50 in the assay with A549 [6] and in the assay with MCF7 [7] was 69.1 to 378 µM each time.
Consider `O=C(Cn1nc(Cc2ccccc2Br)[nH]c1=O)NNC(=O)c1cc2cc(Cl)cc(Cl)c2oc1=O`, for which the concentration for half-maximal inhibition (IC50) with SK-MEL-28, with BT-20, in the assay with DU-145 and with A549 [8] was 3.1 to 37.9 µg/mL (≈ 5.47 to 66.8 µM) in each case.
As to `COc1ccc(-c2cn(Cc3cc(=O)oc4cc(O)c(O)cc34)nn2)cc1`, the IC50 in the assay with HeLa, with Caco-2 and with K562 was 9.7 to 81.9 µM in each case.
As for `Cc1ccc(/N=N/c2sc(N3N=C(c4c(O)c5ccccc5oc4=O)CC3c3ccc(N(C)C)cc3)nc2-c2ccccc2)cc1` (configuration not stated), the concentration for half-maximal inhibition (IC50) in assay [9] lay within 0.034 to 0.582 µM; in the assay with DLD-1, 114 to 129 µM; with MCF7 [10], 5.41 to 6.56 µM.
`COc1cccc(-c2cn(Cc3cc(=O)oc4cc(O)c(O)cc34)nn2)c1`: the half-inhibitory concentration (IC50) in the assay with HeLa, in the assay on Caco-2 and in the assay with K562 was 9.7 to 81.9 µM each time.
`Cc1ccc2c(Cn3cc(CO[C@H]4O[C@@H]5O[C@@]6(C)CC[C@H]7[C@H](C)CC[C@@H]([C@H]4C)[C@@]57OO6)nn3)cc(=O)oc2c1`: the half-maximal inhibitory concentration (IC50) in the assay on HCT-116, with MDA-MB-231 and in the assay on HT-29 was 8.57 to 100 µM in each case.
`COc1ccc2oc(=O)c(-c3nc4cc(OC)ccc4[nH]3)cc2c1`: the concentration for 50% growth inhibition (GI50) (with AGS; in assay [1]; with SNU1; in the assay on SK-OV-3; with OVCAR-8; with BXPC-3) was 0.07 to 3.57 µM each time. For the same compound, the concentration for 50% growth inhibition (GI50) was 0.07 to 3.57 µM in the assay on PANC-1; 0.07 to 3.57 µM in the assay on T-24; 0.07 to 3.57 µM in the assay on WiDr; 0.07 to 3.57 µM in the assay on HepG2 [2]; 0.07 to 3.57 µM with SN12C; greater than 10 µM in the assay with MCF7 [3].
For `O=c1cc(Cn2cc(-c3ccccc3)nn2)c2cc(O)c(O)cc2o1`, the 50% inhibitory concentration (IC50) with HeLa, with Caco-2 and with K562 was 9.7 to 81.9 µM in each case.
Take `CCN(CC)c1ccc2cc(C(=O)N3CCN(CCC[C@H]4O[C@@H]5O[C@@]6(C)CC[C@H]7[C@H](C)CC[C@@H]([C@H]4C)[C@@]57OO6)CC3)c(=O)oc2c1`: the half-maximal inhibitory concentration (IC50) in the assay with HepG2 [11], in the assay on Hep 3B2, in the assay with A2780 and in the assay with OVCAR-3 was 3.05 to 5.82 µM each time.
`Cc1cc(-c2cc3ccccc3oc2=O)n(-c2nc(-c3ccc(Cl)cc3)cs2)n1`: the IC50 with MCF7 [4] was 4.03 to 31.5 µM; with HepG2 [5], 3.06 to 3.74 µM.
